The text below walks through data of paper PMC6984391, “Anion carriers as potential treatments for cystic fibrosis: transport in cystic fibrosis cells, and additivity to channel-targeting drugs” (Chemical Science, 2019).

Data set [1] in a line: Affinity to Cl- in chloroform by extraction of Et4N+Cl- from water. The format is binding. To be noted: extraction of Et4N^+Cl^– from water into chloroform at 303 K; new compound or new data. How it is done: Measurement of affinities to Et4N+Cl- in chloroform through extraction from […]
This method is adapted from Clare et al..4 The Et4N+Cl- salt was obtained from Sigma Aldrich and dried under vacuum overnight prior to solution preparation using deionised water that had been passed through a Millipore filtration system. All host solutions were prepared using chloroform that had been deacidified by passage through a flash chromatography column containing basic alumina.
A solution of host in deacidified chloroform was combined with 10 mL of aqueous Et4N+Cl-guest solution in a sample tube (30 mL). Concentrations and volumes are specified in Table
S1. A magnetic stirring bar (2 cm) was added to the tube and the lower half was immersed in a water bath heated to 303 K, while the contents were stirred vigorously to achieve good mixing of the two phases. After 30 minutes, stirring was stopped and the two phases were allowed to separate. The majority of the aqueous phase was then removed using a pipette and the remaining organic phase was centrifuged for 10 minutes at 4000 rpm. The chloroform solution was then filtered through Whatman 1PS hydrophobic filter paper to remove any remaining aqueous phase. Solvent from the filtrate was then removed in vacuo and the solid was further dried under vacuum. The resulting solids from the extraction experiments were dissolved in acetone-d6 and the solutions were analysed with 1H NMR spectroscopy.
A value for the molar ratio (R) was determined by integrating the signal at δ = 3.5 ppm (CH2 of Et4N+Cl-) against one of the receptor signals.
The values for R obtained from the 1H NMR spectra were used to calculate values for the equilibrium extraction constants Ke:
Horg + Xaq− + Yaq+ ⇌HX−Yorg+ Ke = org […]
To convert the extraction constants Ke into association constants Ka it is necessary to obtain the distribution constants Kd for the substrates between aqueous and organic phases:
The Kd value for tetraethylammonium chloride partitioning between water and chloroform has been determined and reported previously to be 1.269 × 10-5 M-1.5
The binding constant Ka is then calculated from Ke and Kd:
H + X−Y+ ⇌ HX−Y+ K = org = e […]
When [G] > 100 mM, the amount of salt that migrates from the aqueous phase into the organic phase without assistance of the host has to be taken into account by correcting the measured […]
Table S1. Overview of the conditions and results from the extraction experiments Receptor [H] (mM) [G] (mM) Vorg (mL) Vaq (mL) Rmeasured Ka (M-1)

Another data set has as its system YFP-CFBE cells. As to the kind of experiment: XTT cell viability assay in YFP-CFBE cells. Type of data set: cell-based. The note with it: for cytotoxicity in YFP-CFBE cells (XTT): 1–50 μM, 18 h at 37 °C; for IC50: XTT, 18 h treatment, fit of first order regression (Fig. S23), read-out: half-maximal inhibitory concentration (IC50), cell viability. How it is done:
For cytotoxicity studies, we used YFP-CFBE and YFP-FRT cells. YFP-CFBE cells were seeded in 96-well plates at a density of 5 x 10^4 cells/well and cultured at 37 °C in a humidified atmosphere of 5% CO2. Thirty hours after seeding the cells, different concentrations of anionophores were added to the culture media and the cells were incubated with anionophores for 18 h. To assay cell viability, we used the XTT Cell Proliferation Assay Kit (ATCC) according to the manufacturer’s instructions. The specific absorbance of test samples was measured using a Microplate Spectrophotometer (SpectraMax 190, Molecular Devices, Sunnyvale, CA, USA). In each experiment, multiple replicates (12 – 25 wells from 3 – 5 plates) were tested for each concentration of anionophore. […]
To evaluate the cytotoxicity of anionophores 11, 12, 15 and 19, we treated YFP-CFBE cells with the anionophores (1 – 50 µM) in DMSO for 18 h at 37 °C before assessing cell viability using sodium 2,3, -bis(2-methoxy-4-nitro-5-sulfophenyl)-5-[(phenylamino)-carbonyl]-2H-tetrazolium) (XTT). Figure S23 summarises the resu lts. Although compounds […]
(1 picture or pasted object on this page, not shown here)
A general note: Formazan colour is commonly taken as a measure of viable cells.

Details of data set [2]: method as in PMID 22461434, PMID 21846096, PMID 29786913. To be noted: mol% carrier to lipid for 50% Cl^– efflux in 270 s; 490 mM NaCl inside, 490 mM NaNO3 outside; ref [22], [16 and 25]; cited from earlier work.

“Also recorded” adds a separate entry of the source.

As to `COCCOCCOC(=O)[C@]12CC[C@@H](NC(=O)Nc3ccc(C(F)(F)F)cc3)C[C@@H]1C[C@@H](NC(=O)Nc1ccc(C(F)(F)F)cc1)CC2` [Compound 9], in data set [1], the “K a to Cl^– in CHCl3” value is 1.4 × 10^8 M^–1. `COCCOCCOC(=O)[C@]12CC[C@@H](NC(=O)Nc3cc(C(F)(F)F)cc(C(F)(F)F)c3)C[C@@H]1C[C@@H](NC(=O)Nc1cc(C(F)(F)F)cc(C(F)(F)F)c1)CC2` [Compound 10]: the “K a to Cl^– in CHCl3” value in data set [1] is 2.5 × 10^8 M^–1.

With `CCCCCCCCOC(=O)[C@]12CC[C@@H](NC(=S)Nc3ccc([N+](=O)[O-])cc3)C[C@@H]1C[C@@H](NC(=S)Nc1ccc([N+](=O)[O-])cc1)CC2` [Compound 13], in data set [1], the “K a to Cl^– in CHCl3” value was 1.5 × 10^9 M^–1.

`CCOC(=O)[C@]12CC[C@@H](NC(=S)Nc3cc(C(F)(F)F)cc(C(F)(F)F)c3)C[C@@H]1C[C@@H](NC(=S)Nc1cc(C(F)(F)F)cc(C(F)(F)F)c1)CC2` [Compound 15]: in the data set with YFP-CFBE cells, the “cytotoxicity in YFP-CFBE cells (XTT)” value is “some cytotoxicity” and the IC50 is more than 50 µM. Take `FC(F)(F)c1ccc(NC(=S)NCCN(CCNC(=S)Nc2ccc(C(F)(F)F)cc2)CCNC(=S)Nc2ccc(C(F)(F)F)cc2)cc1` [Compound 18]: the “K a to Cl^– in CHCl3” value in data set [1] was 1.5 × 10^7 ^b M^–1. The “EC50, 270 s” value in data set [2] is given as 0.077 mol%.

For `FC(F)(F)c1cc(NC(=S)NCCN(CCNC(=S)Nc2cc(C(F)(F)F)cc(C(F)(F)F)c2)CCNC(=S)Nc2cc(C(F)(F)F)cc(C(F)(F)F)c2)cc(C(F)(F)F)c1` [Compound 19], in data set [1], the “K a to Cl^– in CHCl3” value was 1.5 × 10^9 ^b M^–1. The “EC50, 270 s” value in data set [2] is given as 0.042 mol%. Besides, in the data set with YFP-CFBE cells, the “cytotoxicity in YFP-CFBE cells (XTT)” value is reported as “some cytotoxicity; also recorded: strongest effect” and the IC50 stood at 38 µM.
